{
  "source": "paper PMC12210654",
  "about": "“Palazestrant, a novel oral Complete Estrogen Receptor Antagonist (CERAN) and Selective Estrogen Receptor Degrader (SERD), in patients with ER+/HER2− advanced or metastatic breast cancer: phase 1/2 study results” (Breast Cancer Research : BCR, 2025)",
  "key": {"[1]": {"test_system": "ER+/HER2− advanced or metastatic breast cancer", "experiment": "Antitumor activity: RECIST v1.1 response, CBR, PFS, duration of treatment", "assay_type": "in vivo, human", "from_the_text": "Key efficacy end points included assessment of clinical response according to RECIST v1.1; the clinical benefit rate (CBR), defined as the proportion of patients who achieved a complete response (CR), achieved a partial response (PR), or had stable disease (SD) for at least 24 weeks; and progression-free survival (PFS), defined as the time from the date of the first dose to disease progression or death. Biomarker assessments included changes from baseline in circulating tumor DNA (e.g., ESR1 variants) and tumor tissue biomarkers (ERα and Ki67).\nAll DLT analyses (phase 1a) were performed in patients enrolled in the study during cycle 1 and who either received 75% of the planned palazestrant doses or experienced a DLT during cycle 1. All PK analyses were performed in patients who received at least 1 dose of palazestrant and had adequate postbaseline PK samples for characterization of PK parameters. All safety analyses were performed and PFS assessed in patients who received at least 1 dose of palazestrant. Clinical response (CR or PR) was assessed in patients who received at least 1 cycle of palazestrant, had measurable disease at baseline, and had at least 1 postbaseline tumor assessment. CBR was assessed in patients who received at least 1 cycle of palazestrant, had at least 1 postbaseline tumor assessment, and started their first dose at least 24 weeks before data cutoff. Patients who discontinued study treatment without radiographic progression within 24 weeks from the first dose were not included in the CBR analysis. PK parameters were estimated using conventional noncompartmental methods. For CBR, estimates were accompanied by 2-sided 95% confidence intervals (95% CIs). For PFS, Kaplan–Meier analyses were used to determine medians, event-free rates, and 95% CIs. For all other outcomes, categorical data were analyzed using frequencies and percentages, and continuous data were analyzed using means (standard deviation) or medians (range), as appropriate."}, "ERα": {"test_system": "ERα", "experiment": "ERα immunohistochemistry (Allred score) of tumor samples", "assay_type": "in vivo, human", "conditions": "cycle 3 day 1 (N = 12), all dose levels; baseline 6.67 (N = 18); P = 0.13", "experimental": "(§1) All immunohistochemistry analyses from tumor samples were performed at ICON Central Laboratories (Farmingdale, NY, USA) using the Ventana® BenchMark ULTRA™ automated staining instrument (Oro Valley, AZ, USA). Positive- and negative-control tissue and negative reagent controls were run for each marker, as well as low-ER controls for each run. Estrogen receptor levels were estimated as the number of positive tumor nuclei divided by the total number of tumor nuclei, expressed as a percentage for each receptor type. Evaluation of Ki67 was performed in accordance with Ki67 Working Group recommendations: 1) only nuclear staining was assessed as positive; 2) in cases of tumor heterogeneity (hot spots), 2 counts were performed and the average was reported; and 3) lymphocyte-rich areas were avoided when possible. Presence of activating ESR1 mutations (amino acid regions 370–381, 460–473, and 529–538) and their mutant allele fractions (MAFs) were determined in cell-free DNA (cfDNA), collected at baseline and at 8 weeks on treatment using the SafeSEQ Breast Cancer Panel (Sysmex Inostics, Baltimore, MD, USA).\nIn patients who underwent biomarker testing, samples collected on cycle 3 day 1 of treatment across all dose levels were compared to baseline samples to assess changes during treatment. […]"}, "ESR1": {"test_system": "ESR1", "experiment": "ESR1 mutations in cell-free DNA (SafeSEQ Breast Cancer Panel)", "assay_type": "in vivo, human", "experimental": "as §1\nIn patients who underwent biomarker testing, samples collected on cycle 3 day 1 of treatment across all dose levels were compared to baseline samples to assess changes during treatment. […] Additionally, the number of endocrine resistance-associated ESR1-variant mutations (Y537S, Y537 N/C, L536H/P/R, and D538G) were reduced from 106 mutations detected at baseline (in 64 patients with detectable mutations at baseline) to 37 mutations (in 21 patients) after 2 treatment cycles of palazestrant treatment (Supplemental Fig. 2 C).\n14 Supplemental Figure 2. Biomarker analyses following treatment with palazestrant.\n15 Quantitative analyses were performed on patient tissue and blood samples collected at baseline and\n16 cycle 3 day 1 of palazestrant treatment.\n17 decreased after treatment with palazestrant compared (P=.041). B) ER Allred scores were decreased\n18 after treatment with palazestrant (P=.13). C) Sankey diagram showing the number of mutations detected\n19 in cfDNA for each ESR1 variant before and after treatment with palazestrant. N = number of patients in\n20 the analysis; n= number of mutations.\n21 49 (77%) had at least one mutation become “Not detected” at C3D1.\n22 ESR1 mutation detected at C1D1, 43 (67%) had all their detected mutation(s) become “Not detected” at […]"}, "[2]": {"test_system": "ER+/HER2− advanced or metastatic breast cancer", "set-up": "method as in ref 41 = [41]; 41. Lin NU, Borges VF, Patel MR, Okera M, Meisel J, Wesolowski R, et al. Results from the phase I/II study of OP-1250, an oral complete estrogen receptor (ER) antagonist (CERAN) and selective ER degra", "conditions": "cited from earlier work"}, "ER [3]": {"test_system": "ER", "set-up": "method as in ref 22 = [22]; 22. Hamilton E, Meisel J, Alemany C, Borges V, Lin NU, Wesolowski R, et al. Preliminary phase 1/2 results from OP-1250-001, a study of OP-1250, an oral CERAN/SERD, in patients with advanced and/or met", "conditions": "based on estradiol-supplemented preclinical models; cited from earlier work"}, "ER [4]": {"test_system": "ER", "set-up": "method as in PMID 38102750", "conditions": "cited from earlier work"}, "[5]": {"conditions": "60 mg/day, measurable disease (n = 26)"}, "[6]": {"conditions": "120 mg/day, 66 patients with measurable disease"}, "[7]": {"conditions": "120 mg/day, all patients (n = 86)"}, "[8]": {"conditions": "120 mg/day, patients with ESR1 mutation at baseline (n = 36)"}, "[9]": {"conditions": "of 64 patients with an ESR1 mutation detected at C1D1"}, "[10]": {"conditions": "second- or third-line subanalysis, cancers with ESR1 mutations"}},
  "note": "Several values for one entry are separate records, joined by “and”; a condition that tells them apart may be missing. Identical values can stand only once. Entries after “also recorded” stand apart in the source; their conditions may differ. Like-named read-outs stand apart in the source and are kept apart here.",
  "data": [
    {"molecule": "CCCN1CC(Oc2ccc([C@@H]3c4[nH]c5ccccc5c4C[C@@H](C)N3CC(C)(C)F)cc2)C1", "note": "[palazestrant, Palazestrant]", "values": [
      {"measurement": "best response observed in dose cohorts", "setting": "[1]; 60 mg/day and 120 mg/day dose cohorts", "result": "Confirmed partial responses; also recorded: confirmed PR"},
      {"measurement": "clinical benefit rate (CBR)", "setting": "[1]; 60 mg/day, 13 patients with cancers with ESR1 mutations", "result": 23.1, "unit": "%"},
      {"measurement": "clinical benefit rate (CBR)", "setting": "[1]; 60 mg/day, all evaluable patients (n = 26)", "result": "19% and 19.2%"},
      {"measurement": "confirmed PRs", "setting": "[1]; [5]", "result": 7.7, "unit": "%"},
      {"measurement": "total PRs", "setting": "[1]; [5]", "result": 11.5, "unit": "%"},
      {"measurement": "unconfirmed PR", "setting": "[1]; [5]", "result": 3.8, "unit": "%"},
      {"measurement": "patients remaining on treatment for ≥ 1 year", "setting": "[1]; 120 mg/day (n = 86)", "result": 7.0, "unit": "%"},
      {"measurement": "patients with a > 30% reduction in tumor size", "setting": "[1]; 120 mg/day, 8/64", "result": 12.5, "unit": "%"},
      {"measurement": "patients with a reduction in tumor size (percentage change less than zero)", "setting": "[1]; 120 mg/day, 25/64", "result": 39.1, "unit": "%"},
      {"measurement": "patients remaining on treatment for ≥ 6 months", "setting": "[1]; 120 mg/day, 32/86", "result": 37.2, "unit": "%"},
      {"measurement": "confirmed PRs", "setting": "[1]; [6]", "result": 4.5, "unit": "%"},
      {"measurement": "confirmed PRs including one cPR after the data cutoff date", "setting": "[1]; [6]", "result": 6.0, "unit": "%"},
      {"measurement": "total PRs", "setting": "[1]; [6]", "result": 7.6, "unit": "%"},
      {"measurement": "unconfirmed PRs", "setting": "[1]; [6]", "result": 3.0, "unit": "%"},
      {"measurement": "clinical benefit rate (CBR)", "setting": "[1]; 120 mg/day, all evaluable patients (n = 70)", "result": "46% and 45.7%"},
      {"measurement": "6-month PFS rate", "setting": "[1]; [7]", "result": 39, "unit": "%"},
      {"measurement": "median progression-free survival (95% CI)", "setting": "[1]; [7]", "result": 4.8, "unit": "months"},
      {"measurement": "CBR in patients who had a reduction in ESR1 mutations", "setting": "[1]; 120 mg/day, ctDNA available, 8/11", "result": 73, "unit": "%"},
      {"measurement": "CBR in patients who did not have a reduction in ESR1 mutations", "setting": "[1]; 120 mg/day, ctDNA available, 8/32", "result": 25, "unit": "%"},
      {"measurement": "6-month PFS rate", "setting": "[1]; [8]", "result": 47, "unit": "%"},
      {"measurement": "median progression-free survival (95% CI)", "setting": "[1]; [8]", "result": 5.6, "unit": "months"},
      {"measurement": "clinical benefit rate (CBR)", "setting": "[1]; 120 mg/day, patients with cancers with ESR1 mutations (n = 29)", "result": 58.6, "unit": "%"},
      {"measurement": "ERα Allred score on treatment", "setting": "ERα", "result": 5.17},
      {"measurement": "patients with detectable ESR1-variant mutations on treatment", "setting": "ESR1; after 2 treatment cycles, 64 patients at baseline", "result": 21, "unit": "patients"},
      {"measurement": "number of endocrine resistance-associated ESR1-variant mutations detected on treatment", "setting": "ESR1; after 2 treatment cycles, 106 mutations at baseline", "result": 37, "unit": "mutations"},
      {"measurement": "patients with all detected ESR1 mutation(s) become Not detected at C3D1", "setting": "ESR1; [9]", "result": 67, "unit": "%"},
      {"measurement": "patients with at least one ESR1 mutation become Not detected at C3D1", "setting": "ESR1; [9]", "result": 77, "unit": "%"},
      {"measurement": "median PFS", "setting": "[2]; 49 patients, second- or third-line therapy with or without prior chemotherapy", "result": 7.2, "unit": "months"},
      {"measurement": "CBR", "setting": "[2]; 49 patients, second- or third-line therapy, overall", "result": 48, "unit": "%"},
      {"measurement": "CBR", "setting": "[2]; [10]", "result": 59, "unit": "%"},
      {"measurement": "PFS", "setting": "[2]; [10]", "result": 7.3, "unit": "months"},
      {"measurement": "predicted efficacy threshold, target (efficacious) exposure, Cmin", "setting": "ER [3]", "result": 226, "unit": "ng/mL"},
      {"measurement": "potency in vitro relative to imlunestrant", "setting": "ER [4]", "result": "greater potency in vitro"}
    ]}
  ]
}
